Experimental data from patent publication US7105516B2, “Compounds for the treatment of premature ejaculation” (Bristol-Myers Squibb Company, priority 2002, dated 2006).
pKi: −log10 of the molar value. Read-outs that look alike come from different tables or passages of the source.

Tests used:
[1] = target: T1, human norepinephrine transporters (Homo sapiens, UniProt P23975); assay: Norepinephrine Transporter Binding Assay ([3H]-nisoxetine displacement, hNET cell membranes); details: 2.7 nM [3H]-nisoxetine, 1 hr at 4° C., read-out: NE reuptake binding Ki
T1 construct: the text also calls them 'HEK-hNET cells'); membrane homogenates
Protocol: MDCK cells that stably express human norepinephrine transporters (HEK-hNET cells) were supplied by Receptor Biology, Inc. Pellets were resuspended by homogenization in buffer consisting of 50 mM Tris (pH 7.4 at 25° C.), 120 mM NaCl and 5 mM KCl. Membrane homogenates (200 μl/well, 8 ug protein) were incubated with 2.7 nM [^3H]-nisoxetine (specific activity=80 Ci/mMol) and increasing concentrations of test compounds for 1 hr at 4° C. in a total volume of 250 μl. The assay buffer consisted of 50 mM Tris (pH 7.4 at 25° C.), 120 mM NaCl and 5 mM KCl (pH 7.4 with conc. HCl). Plates were incubated for 1 hr at 4° C., then filtered through 0.5% PEI treated Whatman GF/B filters using a Brandel cell harvester. Filters were washed three times with 3 mL of ice-cold tris wash buffer. Non-specific binding was defined with 10 μM desipramine. Amount of radioligand bound in the presence and absence of competitor was analyzed by plotting (−)log drug concentration versus the amount of radioligand specifically bound. The midpoint of the displacement curve (IC50, nM), signifies the potency. Ki values were calculated using the method of Cheng and Prusoff (1973).

[2] = target: T2, human serotonin transporters (Homo sapiens, UniProt P31645); assay: Serotonin Transporter Binding Assay ([3H]-citalopram displacement, HEK-hSERT cell membranes); details: 1 nM [3H]-citalopram, 1 hr at 25° C.
T2 construct: expressed in transfected cells; membrane homogenates
Protocol: HEK-293 cells that stably express human serotonin transporters (HEK-hSERT cells) were grown at 37° C. in 5% CO2 as a monolayer in medium consisting of EMEM supplemented with 10% fetal bovine serum and G418 sulfate (500 μg/mL). […] Cells were transferred from plates to polypropylene tubes (16×100 mm), centrifuged at 1,200×g for 5 min and were frozen at −80° C. until assay. Following centrifugation, pellets were resuspended by homogenization in buffer consisting of 50 mM Tris (pH 7.7 at 25° C.), 120 mM NaCl and 5 mM KCl and then centrifuged at 32,000×g for 10 min. Following centrifugation, supernatants were discarded and pellets were resuspended in buffer consisting of 50 mM Tris (pH 7.4 at 25° C.), 150 mM NaCl and 5 mM KCl. Membrane homogenates (200 μl/plate) were incubated with 1 nM [^3H]-citalopram (specific activity=85 Ci/mMol) and increasing concentrations of test compounds for 1 hr at 25° C. in a total volume of 250 μl. The assay buffer consisted of 50 mM Tris (pH 7.4 at 25° C.), 120 mM NaCl and 5 mM KCl (pH 7.4 with conc. HCl). Plates were incubated for 1 hr at 25° C., then filtered through 0.5% PEI treated Whatman GF/B filters using a Brandel cell harvester. Filters were washed three times with 3 mL of ice-cold tris wash buffer. Non-specific binding was defined with 10 μM fluoxetine. Amount of radioligand bound in the presence and absence of competitor was analyzed by plotting (−)log drug concentration versus the amount of radioligand specifically bound. The midpoint of the displacement curve (IC50, nM), signifies the potency.

T1 sequence (P23975 whole entry): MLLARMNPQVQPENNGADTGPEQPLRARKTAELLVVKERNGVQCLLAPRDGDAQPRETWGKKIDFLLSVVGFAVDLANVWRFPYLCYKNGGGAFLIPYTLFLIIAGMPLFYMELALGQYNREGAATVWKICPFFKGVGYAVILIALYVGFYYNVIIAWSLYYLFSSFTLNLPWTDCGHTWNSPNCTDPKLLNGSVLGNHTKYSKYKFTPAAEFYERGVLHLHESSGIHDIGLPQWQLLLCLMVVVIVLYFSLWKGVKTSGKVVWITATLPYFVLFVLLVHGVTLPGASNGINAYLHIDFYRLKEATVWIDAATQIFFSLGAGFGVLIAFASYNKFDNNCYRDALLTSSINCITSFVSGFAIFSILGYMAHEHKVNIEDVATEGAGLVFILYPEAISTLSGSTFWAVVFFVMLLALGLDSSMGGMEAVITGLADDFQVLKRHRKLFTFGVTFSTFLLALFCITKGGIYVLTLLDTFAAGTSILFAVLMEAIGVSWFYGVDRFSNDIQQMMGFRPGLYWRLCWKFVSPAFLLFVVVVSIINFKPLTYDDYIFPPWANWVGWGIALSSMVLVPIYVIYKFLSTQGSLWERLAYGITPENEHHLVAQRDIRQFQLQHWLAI
T2 sequence (P31645 whole entry): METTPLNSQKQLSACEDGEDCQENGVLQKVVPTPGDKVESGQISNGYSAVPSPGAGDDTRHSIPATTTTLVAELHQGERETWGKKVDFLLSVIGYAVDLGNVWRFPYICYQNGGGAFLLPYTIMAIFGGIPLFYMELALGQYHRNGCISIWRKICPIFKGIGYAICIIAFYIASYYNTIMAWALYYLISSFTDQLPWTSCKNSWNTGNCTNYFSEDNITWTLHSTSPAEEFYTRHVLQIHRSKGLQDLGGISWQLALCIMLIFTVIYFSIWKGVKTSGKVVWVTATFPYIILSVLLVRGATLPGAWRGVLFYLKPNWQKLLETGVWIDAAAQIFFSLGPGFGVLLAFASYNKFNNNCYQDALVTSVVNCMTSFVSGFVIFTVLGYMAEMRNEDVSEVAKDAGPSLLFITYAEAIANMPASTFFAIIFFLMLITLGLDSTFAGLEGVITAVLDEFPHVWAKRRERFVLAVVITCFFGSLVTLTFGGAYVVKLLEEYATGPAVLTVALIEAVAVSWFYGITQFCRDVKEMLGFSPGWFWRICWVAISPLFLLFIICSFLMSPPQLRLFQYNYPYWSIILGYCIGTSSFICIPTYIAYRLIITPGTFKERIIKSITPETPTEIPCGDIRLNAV

Row | SMILES | pKi [1] | pKi ([2]; 5-HT reuptake binding Ki) | pKi ([2]; read-out: 5-HT reuptake binding Ki)
1 | CCN(CC)C[C@H]1CCC[C@@H]1c1c[nH]c2ccc(C#N)cc12 (relative stereo) [Example 28, Trans-3-(2-diethylaminomethyl-cyclopentyl)-1H-indole-5-carbonitrile] | < 6.00 | 6.30 to 7.00 | 
2 | CN(C)C[C@@H]1CCC[C@H]1c1c[nH]c2ccc(C#N)cc12 (single isomer, unassigned; enantiomer a) [Example 44] | < 6.00 | 7.00 to 8.00 | 
3 | CNC[C@H]1CCC[C@@H]1c1c[nH]c2ccc(C#N)cc12 (relative stereo) [Example 26, Trans-3-(2-methylaminomethyl-cyclopentyl)-1H-indole-5-carbonitrile] | < 6.00 |  | 8.00 to 9.00
